Our source for the EC50 values is BindingDB's records for doi:10.1016/j.bmcl.2010.04.020 (Kalypsys, 2010).

This assay can be described thus: Inhibition of ROCK1 in human GTM3 cells by impedance assay.

In general, EC50 refers to the concentration that produces a half-maximal response.

`Cc1c(-c2ccnc(N)n2)sc2ccc(C(N)C(C)C)cc12` (racemic) [(+/-)-4-(5-(1-amino-2-methylpropyl)-3-methylbenzo[b]thiophen-2-yl)pyrimidin-2-amine]: the response was half-maximal at 2.1 µM (EC50).
Next, `Cc1c(-c2ccnc(N)n2)sc2ccc(C(N)CC(C)C)cc12` (racemic) [(+/-)-4-(5-(1-amino-3-methylbutyl)-3-methylbenzo[b]thiophen-2-yl)pyrimidin-2-amine]: 1.4 µM.
Next, `CCCC(N)c1ccc2sc(-c3ccnc(N)n3)c(C)c2c1` (racemic) [(+/-)-4-(5-(1-aminobutyl)-3-methylbenzo[b]thiophen-2-yl)pyrimidin-2-amine]: 0.6 µM; `Cc1c(-c2ccnc(N)n2)sc2ccc(C(C)N)cc12` (racemic) [(+/-)-4-(5-(1-aminoethyl)-3-methylbenzo[b]thiophen-2-yl)pyrimidin-2-amine]: 4.2 µM.
With `CCC(N)c1ccc2sc(-c3ccnc(N)n3)c(C)c2c1` (racemic) [(+/-)-4-(5-(1-aminopropyl)-3-methylbenzo[b]thiophen-2-yl)pyrimidin-2-amine], the EC50 was determined as 1.7 µM.
In turn, `COc1cccc(C(N)c2ccc3sc(-c4ccnc(N)n4)c(C)c3c2)c1` (racemic) [(+/-)-4-(5-(amino(3-methoxyphenyl)methyl)-3-methylbenzo[b]thiophen-2-yl)pyrimidin-2-amine] displayed an EC50 of 3.6 µM.
Next, `Cc1c(-c2ccnc(N)n2)sc2ccc(C(N)c3ccccc3)cc12` (racemic) [(+/-)-4-(5-(amino(phenyl)methyl)-3-methylbenzo[b]thiophen-2-yl)pyrimidin-2-amine]: 1.4 µM; `Cc1c(-c2ccnc(N)n2)sc2ccc(C(N)c3cccc(Cl)c3)cc12` (racemic) [(+/-)--4-(5-(amino(3-chlorophenyl)methyl)-3-methylbenzo[b]thiophen-2-yl)pyrimidin-2-amine]: 2.7 µM.
Molecule `COc1ccc(C(N)c2ccc3sc(-c4ccnc(N)n4)c(C)c3c2)cc1` (racemic) [(+/-)--4-(5-(amino(4-methoxyphenyl)methyl)-3-methylbenzo[b]thiophen-2-yl)pyrimidin-2-amine] came in with an EC50 of 2.6 µM.
Turning to `Cc1cccc(C(N)c2ccc3sc(-c4ccnc(N)n4)c(C)c3c2)c1` (racemic) [(+/-)--4-(5-(amino(m-tolyl)methyl)-3-methylbenzo[b]thiophen-2-yl)pyrimidin-2-amine], it took 1.9 µM to reach a half-maximal effect (EC50).
Next, `Cc1c(-c2ccnc(N)n2)sc2ccc(Cc3cccc(C(=O)O)c3)cc12` [3-((2-(2-aminopyrimidin-4-yl)-3-methylbenzo[b]thiophen-5-yl)methyl)benzoic acid]: > 10 µM; `Cc1c(-c2ccnc(N)n2)sc2ccc(Cc3cccc(O)c3)cc12` [3-((2-(2-aminopyrimidin-4-yl)-3-methylbenzo[b]thiophen-5-yl)methyl)phenol]: 2.9 µM; `Cc1c(-c2ccnc(N)n2)sc2ccc(Cc3cccc(C(F)(F)F)c3)cc12` [4-(3-methyl-5-(3-(trifluoromethyl)benzyl)benzo[b]thiophen-2-yl)pyrimidin-2-amine]: > 10 µM.
Next, `Cc1c(-c2ccnc(N)n2)sc2ccc(-c3ccccc3)cc12` [4-(3-methyl-5-phenylbenzo[b]thiophen-2-yl)pyrimidin-2-amine]: > 10 µM.
Next, `Cc1c(-c2ccnc(N)n2)sc2ccccc12` [4-(3-methylbenzo[b]thiophen-2-yl)pyrimidin-2-amine]: > 10 µM.
Turning to `COc1ccccc1Cc1ccc2sc(-c3ccnc(N)n3)c(C)c2c1` [4-(5-(2-methoxybenzyl)-3-methylbenzo[b]thiophen-2-yl)pyrimidin-2-amine], the EC50 was > 10 µM.
In the case of `COc1cccc(Cc2ccc3sc(-c4ccnc(N)n4)c(C)c3c2)c1` [4-(5-(3-methoxybenzyl)-3-methylbenzo[b]thiophen-2-yl)pyrimidin-2-amine], the EC50 was > 10 µM.
Regarding `COc1ccc(Cc2ccc3sc(-c4ccnc(N)n4)c(C)c3c2)cc1` [4-(5-(4-methoxybenzyl)-3-methylbenzo[b]thiophen-2-yl)pyrimidin-2-amine], the EC50 was > 10 µM.
In the case of `Cc1c(-c2ccnc(N)n2)sc2ccc(CN)cc12` [4-(5-(aminomethyl)-3-methylbenzo[b]thiophen-2-yl)pyrimidin-2-amine], the EC50 was > 10 µM.
For the molecule `Cc1c(-c2ccnc(N)n2)sc2ccc(Cc3ccccc3)cc12` [4-(5-benzyl-3-methylbenzo[b]thiophen-2-yl)pyrimidin-2-amine], the EC50 was > 10 µM.
Consider `COC(=O)c1cccc(Cc2ccc3sc(-c4ccnc(N)n4)c(C)c3c2)c1` [methyl 3-((2-(2-aminopyrimidin-4-yl)-3-methylbenzo[b]thiophen-5-yl)methyl)benzoate], for which the EC50 is > 10 µM.
